From patent US20250179032A1, “HETEROCYCLIC INHIBITORS OF GLUT9 FOR TREATMENT OF DISEASE” (HORIZON THERAPEUTICS IRELAND DAC, priority 2022, published 2025)

What follows are compounds tested against T1, H. sapiens SLC2A9 variant 2 (GLUT9B) (Homo sapiens, UniProt Q9NRM0) (assay: GLUT9 functional assay: uric acid uptake in HEK293T cells, allantoin formation by MS/MS as proxy of GLUT9B inhibition). Conditions: 15 minute assay; HEK293T cells stably expressing GLUT9B and transiently A. oryzae uricase; uric acid 0.3 mM, 37° C.; read-out: 15 min IC50.
T1 sequence (Q9NRM0 1-511 isoform Q9NRM0-2): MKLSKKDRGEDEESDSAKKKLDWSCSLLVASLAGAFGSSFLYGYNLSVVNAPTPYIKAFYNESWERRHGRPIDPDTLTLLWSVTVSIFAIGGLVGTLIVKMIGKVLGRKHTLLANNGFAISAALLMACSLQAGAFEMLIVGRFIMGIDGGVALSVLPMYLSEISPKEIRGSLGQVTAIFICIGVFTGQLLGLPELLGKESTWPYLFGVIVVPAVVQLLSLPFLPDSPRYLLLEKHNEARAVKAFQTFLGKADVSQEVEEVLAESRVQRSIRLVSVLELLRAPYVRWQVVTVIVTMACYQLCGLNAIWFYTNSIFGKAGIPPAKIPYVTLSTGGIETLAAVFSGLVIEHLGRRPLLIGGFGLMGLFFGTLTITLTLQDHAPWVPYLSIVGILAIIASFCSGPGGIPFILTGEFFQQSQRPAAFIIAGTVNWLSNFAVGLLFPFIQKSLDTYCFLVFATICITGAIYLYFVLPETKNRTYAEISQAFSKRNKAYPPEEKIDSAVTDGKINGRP
Type: cell-based
Summary of the method: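 Inhibition of GLUT9B-mediated urate uptake read as reduced allantoin formation, measured by MS/MS against allantoin standards in HEK293T matrix with log-logistic fitting. Stable GLUT9B HEK293T cells carrying transfected A. oryzae uricase were incubated 15 or 60 min at 37° C with uric acid at Km (0.3 mM), pH 7.4 gluconate buffer.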

SMILES	IC50
COCCCc1cnc(-c2cc(F)c3occc3c2)c(N2CCC(C(=O)O)CC2)c1 [Compound 168, 1-(2-(7-Fluorobenzofuran-5-yl)-5-(3-Methoxypropyl)Pyridin-3-yl)piperidine-4-carboxylic acid]	< 500 nM
COCCCc1cnc(-c2cc(F)c3c(c2)OCO3)c(N2CCC(C(=O)O)CC2)c1 [Compound 169, 1-(2-(7-fluorobenzo[d][1,3]dioxol-5-yl)-5-(3-methoxypropyl)pyridin-3-yl)piperidine-4-carboxylic acid]	< 500 nM
COCCCc1cnc(-c2cnc3occc3c2)c(N2CCC(C(=O)O)CC2)c1 [Compound 170, 1-(2-(Furo[2,3-b]Pyridin-5-yl)-5-(3-Methoxypropyl)Pyridin-3-yl)piperidine-4-carboxylic acid]	500 to 2000 nM
COCCCc1cnc(-c2ccc3c(c2)OCO3)c(N2CCC(O)(C(=O)O)CC2)n1 [Compound 171, 1-(3-(benzo[d][1,3]dioxol-5-yl)-6-(3-methoxypropyl)pyrazin-2-yl)-4-hydroxypiperidine-4-carboxylic acid]	> 2000 nM
COCCCc1cnc(-c2ccc3occc3c2)c(N2CCC(C(=O)O)CC2)n1 [Compound 172, 1-(3-(benzofuran-5-yl)-6-(3-Methoxypropyl)Pyrazin-2-yl)Piperidine-4-carboxylic acid]	< 500 nM
COCCCc1cnc(-c2cc(F)c3occc3c2)c(N2CCC(C(=O)O)CC2)n1 [Compound 173, 1-(3-(7-Fluorobenzofuran-5-yl)-6-(3-Methoxypropyl)Pyrazin-2-yl)piperidine-4-carboxylic acid]	< 500 nM
O=C(O)C1(O)CCN(c2nc(CCCC(F)(F)F)cnc2-c2ccc3occc3c2)CC1 [Compound 174, 1-(3-(benzofuran-5-yl)-6-(4,4,4-trifluorobutyl)pyrazin-2-yl)-4-hydroxypiperidine-4-carboxylic acid]	500 to 2000 nM
COCCCc1cnc(-c2ccc3occc3c2)c(N2CC(C(=O)O)C2)n1 [Compound 175, 1-(3-(benzofuran-5-yl)-6-(3-methoxypropyl)pyrazin-2-yl)azetidine-3-carboxylic acid]	> 2000 nM
COCCCc1cnc(-c2ccc3c(c2)OCO3)c(N2CC(C(=O)O)C2)n1 [Compound 176, 1-(3-(benzo[d][1,3]dioxol-5-yl)-6-(3-methoxypropyl)pyrazin-2-yl)azetidine-3-carboxylic acid]	> 2000 nM
O=C(O)C1CCN(c2nc(CCCOCC(F)(F)F)cnc2-c2ccc3occc3c2)CC1 [Compound 177, 1-(3-(benzofuran-5-yl)-6-(3-(2,2,2-trifluoroethoxy)propyl)pyrazin-2-yl)piperidine-4-carboxylic acid]	< 500 nM

Same assay, conditions: 60 minute assay; HEK293T cells stably expressing GLUT9B and transiently A. oryzae uricase; uric acid 0.3 mM, 37° C.; read-out: 60 min IC50

SMILES	IC50
COCCCc1cnc(-c2cc(F)c3occc3c2)c(N2CCC(C(=O)O)CC2)c1 [Compound 168, 1-(2-(7-Fluorobenzofuran-5-yl)-5-(3-Methoxypropyl)Pyridin-3-yl)piperidine-4-carboxylic acid]	< 500 nM
COCCCc1cnc(-c2cnc3occc3c2)c(N2CCC(C(=O)O)CC2)c1 [Compound 170, 1-(2-(Furo[2,3-b]Pyridin-5-yl)-5-(3-Methoxypropyl)Pyridin-3-yl)piperidine-4-carboxylic acid]	> 2000 nM
COCCCc1cnc(-c2ccc3occc3c2)c(N2CCC(C(=O)O)CC2)n1 [Compound 172, 1-(3-(benzofuran-5-yl)-6-(3-Methoxypropyl)Pyrazin-2-yl)Piperidine-4-carboxylic acid]	< 500 nM
COCCCc1cnc(-c2cc(F)c3occc3c2)c(N2CCC(C(=O)O)CC2)n1 [Compound 173, 1-(3-(7-Fluorobenzofuran-5-yl)-6-(3-Methoxypropyl)Pyrazin-2-yl)piperidine-4-carboxylic acid]	< 500 nM
COCCCc1cnc(-c2ccc3occc3c2)c(N2CC(C(=O)O)C2)n1 [Compound 175, 1-(3-(benzofuran-5-yl)-6-(3-methoxypropyl)pyrazin-2-yl)azetidine-3-carboxylic acid]	> 2000 nM
O=C(O)C1CCN(c2nc(CCCOCC(F)(F)F)cnc2-c2ccc3c(c2)OCO3)CC1 [Compound 178, 1-(3-(benzo[d][1,3]dioxol-5-yl)-6-(3-(2,2,2-trifluoroethoxy)propyl)pyrazin-2-yl)piperidine-4-carboxylic acid]	500 to 2000 nM
COCCCc1cnc(-c2ccc3oc(COC)cc3c2)c(N2CCC(C(=O)O)CC2)n1 [Compound 179, 1-(3-(2-(methoxymethyl)benzofuran-5-yl)-6-(3-methoxypropyl)pyrazin-2-yl)piperidine-4-carboxylic acid]	500 to 2000 nM
COCCCc1cnc(-c2ccc3occc3c2)c(N2CCC3(C(=O)O)CC2C3)n1 [Compound 181, 2-(3-(benzofuran-5-yl)-6-(3-methoxypropyl)pyrazin-2-yl)-2-azabicyclo[3.1.1]heptane-5-carboxylic acid]	< 500 nM
COCCCc1cnc(-c2ccc3occc3c2)c(NC23CC(C(=O)O)(C2)C3)n1 [Compound 182, 3-((3-(benzofuran-5-yl)-6-(3-methoxypropyl)pyrazin-2-yl)amino)bicyclo[1.1.1]pentane-1-carboxylic acid]	> 2000 nM
COCCCc1cnc(-c2cc(F)c3occc3c2)c(N2CCC(C)(C(=O)O)CC2)n1 [Compound 184, 1-(3-(7-fluorobenzofuran-5-yl)-6-(3-methoxypropyl)pyrazin-2-yl)-4-methylpiperidine-4-carboxylic acid]	< 500 nM
COCCCc1cnc(-c2cc(F)c3occc3c2)c(N2CCC(O)(C(=O)O)CC2)n1 [Compound 185, 1-(3-(7-fluorobenzofuran-5-yl)-6-(3-methoxypropyl)pyrazin-2-yl)-4-hydroxypiperidine-4-carboxylic acid]	500 to 2000 nM
COCCCc1cnc(-c2cc(F)c3occc3c2)c(N2CCC(C(=O)O)C3CC32)n1 (centres unmarked) [Compound 186, 2-(3-(7-fluorobenzofuran-5-yl)-6-(3-methoxypropyl)pyrazin-2-yl)-2-azabicyclo[4.1.0]heptane-5-carboxylic acid]	< 500 nM
COCCCc1cnc(-c2cc(F)c3occc3c2)c(N2CCC(C(=O)O)C(F)(F)C2)n1 (centres unmarked) [Compound 187, 3,3-difluoro-1-(3-(7-fluorobenzofuran-5-yl)-6-(3-methoxypropyl)pyrazin-2-yl)piperidine-4-carboxylic acid]	< 500 nM
O=C(O)C1CCN(c2nc(CCCC(F)F)cnc2-c2cc(F)c3occc3c2)CC1 [Compound 188, 1-(6-(4,4-difluorobutyl)-3-(7-fluorobenzofuran-5-yl)pyrazin-2-yl)piperidine-4-carboxylic acid]	< 500 nM
COCCCc1cnc(-c2ccc3c(c2)OCO3)c(N2CCC(C(=O)O)CC2)n1 [Compound 189, 1-(3-(benzo[d][1,3]dioxol-5-yl)-6-(3-Methoxypropyl)Pyrazin-2-yl)piperidine-4-carboxylic acid]	< 500 nM
COCCCc1cnc(-c2cc(F)c3c(c2)OCO3)c(N2CCC(C(=O)O)CC2)n1 [Compound 190, 1-(3-(7-Fluorobenzo[d][1,3]dioxol-5-yl)-6-(3-Methoxypropyl)Pyrazin-2-yl)piperidine-4-carboxylic acid]	< 500 nM
COCCCc1cnc(-c2ccc3c(c2)OCO3)c(N2CCC(C(=O)O)CC2)c1 [Compound 191, 1-(2-(benzo[d][1,3]dioxol-5-yl)-5-(3-Methoxypropyl)Pyridin-3-yl)piperidine-4-carboxylic acid]	< 500 nM
COCCCc1cnc(-c2cc(F)c3c(c2)CCO3)c(N2CCC(C)(C(=O)O)CC2)n1 [Compound 192, 1-(3-(7-fluoro-2,3-dihydrobenzofuran-5-yl)-6-(3-methoxypropyl)pyrazin-2-yl)-4-methylpiperidine-4-carboxylic acid]	< 500 nM
COCCCc1cnc(-c2ccc3c[nH]nc3c2)c(N2CCC(C(=O)O)CC2)n1 [Compound 193, 1-(3-(2H-indazol-6-yl)-6-(3-methoxypropyl)pyrazin-2-yl)piperidine-4-carboxylic acid]	> 2000 nM
COCCCc1cnc(-c2ccnc3[nH]ccc23)c(N2CCC(C(=O)O)CC2)n1 [Compound 194, 1-(6-(3-methoxypropyl)-3-(1H-pyrrolo[2,3-b]pyridin-4-yl)pyrazin-2-yl)piperidine-4-carboxylic acid]	> 2000 nM
COCCCc1cnc(-c2ccc3ncnn3c2)c(N2CCC(C(=O)O)CC2)n1 [Compound 195, 1-(3-([1,2,4]triazolo[1,5-a]pyridin-6-yl)-6-(3-methoxypropyl)pyrazin-2-yl)piperidine-4-carboxylic acid]	> 2000 nM
COCCCc1cnc(-c2cnc3nccn3c2)c(N2CCC(C(=O)O)CC2)n1 [Compound 196, 1-(3-(imidazo[1,2-a]pyrimidin-6-yl)-6-(3-methoxypropyl)pyrazin-2-yl)piperidine-4-carboxylic acid]	> 2000 nM
COCCCc1cnc(-c2ccc3c(C)[nH]nc3c2)c(N2CCC(C(=O)O)CC2)n1 [Compound 197, 1-(6-(3-methoxypropyl)-3-(3-methyl-2H-indazol-6-yl)pyrazin-2-yl)piperidine-4-carboxylic acid]	> 2000 nM
COCCCc1cnc(-c2ccc3nn(C)cc3c2)c(N2CCC(C(=O)O)CC2)n1 [Compound 198, 1-(6-(3-methoxypropyl)-3-(2-methyl-2H-indazol-5-yl)pyrazin-2-yl)piperidine-4-carboxylic acid]	> 2000 nM
COCCCc1cnc(-c2cnc3ccccc3c2)c(N2CCC(C(=O)O)CC2)n1 [Compound 199, 1-(6-(3-methoxypropyl)-3-(quinolin-3-yl)pyrazin-2-yl)piperidine-4-carboxylic acid]	> 2000 nM
COCCCc1cnc(-c2ccnc3ccccc23)c(N2CCC(C(=O)O)CC2)n1 [Compound 200, 1-(6-(3-methoxypropyl)-3-(quinolin-4-yl)pyrazin-2-yl)piperidine-4-carboxylic acid]	> 2000 nM
COCCCc1cnc(-c2cc(C(F)(F)F)nn2C)c(N2CCC(C(=O)O)CC2)n1 [Compound 201, 1-(6-(3-methoxypropyl)-3-(1-methyl-3-(trifluoromethyl)-1H-pyrazol-5-yl)pyrazin-2-yl)piperidine-4-carboxylic acid]	> 2000 nM
COCCCc1cnc(-c2ccnn2CCC(C)C)c(N2CCC(C(=O)O)CC2)n1 [Compound 202, 1-(3-(1-isopentyl-1H-pyrazol-5-yl)-6-(3-methoxypropyl)pyrazin-2-yl)piperidine-4-carboxylic acid]	> 2000 nM
